Reference: patent US8642611B2, “Alkynylpyrimidines and salts thereof, pharmaceutical compositions comprising same, methods of preparing same and uses of same” (Bayer Intellectual Property GmbH, priority 2007, dated 2014)

What was measured:
CDK2/CycE = target: T1, CDK2/CycE (Homo sapiens, UniProt P24941); assay: CDK2/Cyclin E Kinase Assay; type: biochemical; details: CDK2/CycE HTRF, 10 μM ATP; read-out: CDK2 activity (assay 6)
T1 construct: GST; purchased ProQinase GmbH (Freiburg, Germany); host or cells: insect cells (Sf9)
Description: Assay 6: CDK2/Cyclin E Kinase Assay
CDK2/CyclinE—inhibitory activity of compounds of the present invention was quantified employing the CDK2/CycE HTRF assay as described in the following paragraphs.
Recombinant fusion proteins of GST and human CDK2 and of GST and human CycE, expressed in insect cells (Sf9) and purified by Glutathion-Sepharose affinity chromatography, were purchase from ProQinase GmbH (Freiburg, Germany). As substrate for the kinase reaction biotinylated peptide biotin-Ttds-YISPLKSPYKISEG (C-terminus in amid form) was used which can be purchased e.g. form the company JERINI peptide technologies (Berlin, Germany).
CDK2/CycE was incubated for 60 min at 22° C. in the presence of different concentrations of test compounds in 5 μl assay buffer [50 mM Tris/HCl pH 8.0, 10 mM MgCl2, 1.0 mM dithiothreitol, 0.1 mM sodium ortho-vanadate, 10 μM adenosine-tri-phosphate (ATP), 0.75 μM substrate, 0.01% (v/v) Nonidet-P40 (Sigma), 1% (v/v) dimethylsulfoxide]. The concentration of CDK2/CycE was adjusted depending of the activity of the enzyme lot and was chosen appropriate to have the assay in the linear range, typical concentrations were in the range of 1 ng/ml. The reaction was stopped by the addition of 5 μl of a solution of HTRF detection reagents (0.2 μM streptavidine-XLent and 3.4 nM Phospho-(Ser) CDKs Substrate Antibody [product #2324B, Cell Signaling Technology, Danvers, Mass., USA} and 4 nM Prot-A-EuK [Protein A labeled with Europium Cryptate from Cis biointernational, France, product no. 61PRAKLB]) in an aqueous EDTA-solution (100 mM EDTA, 800 mM KF, 0.2% (w/v) bovine serum albumin in 100 mM HEPES/NaOH pH 7.0).
The resulting mixture was incubated 1 h at 22° C. to allow the formation of complex between the phosphorylated biotinylated peptide and the detection reagents. Subsequently the amount of phosphorylated substrate was evaluated by measurement of the resonance energy transfer from the Prot-A-EuK to the streptavidine-XLent. Therefore, the fluorescence emissions at 620 nm and 665 nm after excitation at 350 nm was measured in a HTRF reader, e.g. a Rubystar (BMG Labtechnologies, Offenburg, Germany) or a Viewlux (Perkin-Elmer). The ratio of the emissions at 665 nm and at […] was taken as the measure for the amount of phosphorylated substrate. The data were normalised (enzyme reaction without inhibitor=0% inhibition, all other assay components but no enzyme=100% inhibition) and IC50 values were calculated by a 4 parameter fit using an inhouse software.

human KDR = target: T2, human KDR (Homo sapiens, UniProt P35968); assay: VEGFR2 Kinase (KDR) HTRF Assay; type: biochemical; details: GST-tagged kinase domain of human KDR, 10 μM ATP; read-out: KDR activity (assay 4)
T2 construct: GST-tagged recombinant kinase domain of the human KDR; GST; made in house; host or cells: SF-9 insect cells
T2 sequence (P35968 834-1162 limits assumed): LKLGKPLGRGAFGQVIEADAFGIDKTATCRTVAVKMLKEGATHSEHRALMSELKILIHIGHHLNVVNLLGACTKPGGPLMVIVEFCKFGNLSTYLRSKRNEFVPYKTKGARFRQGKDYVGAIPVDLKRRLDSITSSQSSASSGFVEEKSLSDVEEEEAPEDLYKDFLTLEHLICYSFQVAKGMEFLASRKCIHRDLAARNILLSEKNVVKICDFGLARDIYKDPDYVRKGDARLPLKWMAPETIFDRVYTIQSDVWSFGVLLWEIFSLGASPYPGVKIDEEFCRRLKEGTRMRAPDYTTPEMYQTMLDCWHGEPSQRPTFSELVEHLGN
Description: Assay 4: VEGFR2 Kinase (KDR) HTRF Assay
KDR inhibitory activity of compounds of the present invention was quantified employing the KDR HTRF assay as described in the following paragraphs.
GST-tagged recombinant kinase domain of the human KDR expressed in SF-9 cells was used as kinase. As substrate for the kinase reaction the biotinylated peptide biotin-Ahx-DFGLARDMYDKEYYSVG (C-terminus in acid form) was used which can be purchased e.g. form the company Biosynthan GmbH (Berlin-Buch, Germany). KDR was incubated for 45 min at 22° C. in the presence of different concentrations of test compounds in 5 μl assay buffer [50 mM Hepes/NaOH pH 7.0, 25 mM MgCl2, 5 mM MnCl2, 1.0 mM dithiothreitol, 0.1 mM sodium ortho-vanadate, 10 μM adenosine-tri-phosphate (ATP), 0.5 μM substrate, 0.001% (v/v) Nonidet-P40 (Sigma), 1% (v/v) dimethylsulfoxide]. The concentration of KDR was adjusted depending of the activity of the enzyme lot and was chosen appropriate to have the assay in the linear range. The reaction was stopped by the addition of 5 μL of a solution of HTRF detection reagents (0.1 μM streptavidine-XLent and 2 nM PT66-Eu-Chelate, an europium-chelate Labelled anti-phospho-tyrosine antibody from Perkin Elmer) in an aqueous EDTA-solution (125 mM EDTA, 0.2% (w/v) bovine serum albumin in 50 mM HEPES/NaOH pH 7.0).
The resulting mixture was incubated 1 h at 22° C. to allow the binding of the biotinylated phosphorylated peptide to the streptavidine-XLent and the PT66-Eu-Chelate. Subsequently the amount of phosphorylated substrate was evaluated by measurement of the resonance energy transfer from the PT66-Eu-Chelate to the streptavidine-XLent. Therefore, the fluorescence emissions at 620 nm and 665 nm after excitation at 350 nm was measured in a HTRF reader, e.g. a Rubystar (BMG Labtechnologies, Offenburg, Germany) or a ViewLux (Perkin-Elmer). The ratio of the emissions at 665 nm and at […] was taken as the measure for the amount of phosphorylated substrate. The data were normalised (enzyme reaction without inhibitor=0% inhibition, all other assay components but no enzyme=100% inhibition) and IC50 values were calculated by a 4 parameter fit using an inhouse software.

IC50 (CDK2/CycE)	IC50 (human KDR)	Structure (SMILES)
> 10000 nM	< 500 nM	COc1ccc(C#Cc2cnc(Nc3ccc(S(C)(=N)=O)cc3)nc2N[C@H](C)CO)cc1 (mixture of isomers) [Example 1.1, (RS)—S-(4-[4-((R)-2-Hydroxy-1-methyl-ethylamino)-5-(4-methoxy-phenylethynyl)-pyrimidin-2-ylamino]-phenyl)-S-methylsulfoximide]
> 10000 nM	< 500 nM	C[C@H](CO)Nc1nc(Nc2ccc(S(C)(=N)=O)cc2)ncc1C#Cc1ccccc1 (mixture of isomers) [Example 1.2, (RS)-S-(4-[4-((R)-2-Hydroxy-1-methyl-ethylamino)-5-(phenylethynyl)-pyrimidin-2-ylamino]-phenyl)-S-methylsulfoximide]
1000 to 10000 nM	< 500 nM	CC(C)NC(=O)N=S(C)(=O)c1cccc(Nc2ncc(C#Cc3cccc(O)c3)c(N[C@H](C)CO)n2)c1 (mixture of isomers) [Example 1.15, (RS)-S-(3-[4-((R)-2-Hydroxy-1-methyl-ethylamino)-5-(3-hydroxy-phenylethynyl)-pyrimidin-2-ylamino]-phenyl)-N-(isopropylcarbamoyl)-S-methylsulfoximide]
> 10000 nM	< 500 nM	COc1ccc(C#Cc2cnc(Nc3cccc(S(C)(=N)=O)c3)nc2N[C@H](C)CO)cc1 (mixture of isomers) [Example 1.17, (RS)-S-(3-[4-((R)-2-Hydroxy-1-methyl-ethylamino)-5-(4-methoxy-phenylethynyl)-pyrimidin-2-ylamino]-phenyl)-S-methylsulfoximide]
1000 to 10000 nM	< 500 nM	C[C@H](CO)Nc1nc(Nc2cccc(S(C)(=N)=O)c2)ncc1C#Cc1cccc(O)c1 (mixture of isomers) [Example 1.18, (RS)-S-(3-[4-((R)-2-Hydroxy-1-methyl-ethylamino)-5-(3-hydroxy-phenylethynyl)-pyrimidin-2-ylamino]-phenyl)-S-methylsulfoximide]
1000 to 10000 nM	< 500 nM	Cc1ccccc1C#Cc1cnc(Nc2ccc(S(C)(=N)=O)cc2)nc1N[C@H](C)CO (mixture of isomers) [Example 1.3]
> 10000 nM	< 500 nM	CCNc1nc(Nc2ccc(S(C)(=N)=O)cc2)ncc1C#Cc1ccc(OC)cc1 (racemic) [Example 1.26, (RS)-S-(4-[4-ethylamino-5-(4-methoxy-phenyl-ethynyl)-pyrimidin-2-ylamino]-phenyl)-S-methylsulfoximide]
1000 to 10000 nM	< 500 nM	CCOC(=O)N=S(C)(=O)c1ccc(Nc2ncc(C#Cc3cccc(O)c3)c(N[C@H](C)CO)n2)cc1 (mixture of isomers) [Example 2.7]
> 10000 nM	< 500 nM	CS(=N)(=O)c1cccc(Nc2ncc(C#Cc3cccc(O)c3)cn2)c1 (racemic) [Example 4.2, (RS)—S-(3-[5-(3-hydroxy-phenylethynyl)-pyrimidin-2-ylamino]-phenyl)-S-methylsulfoximide]

Further lines, the compound ahead of its results:

Structure (SMILES)	IC50 (CDK2/CycE)	IC50 (human KDR)
CCc1ccc(C#Cc2cnc(Nc3ccc(S(C)(=N)=O)cc3)nc2N[C@H](C)CO)cc1 (mixture of isomers) [Example 1.8, (RS)-S-(4-[5-(4-Ethyl-phenylethynyl)-4-((R)-2-hydroxy-1-methyl-ethylamino)-pyrimidin-2-ylamino]-phenyl)-S-methylsulfoximide]	> 10000 nM	< 500 nM
C[C@H](CO)Nc1nc(Nc2ccc(S(C)(=N)=O)cc2)ncc1C#Cc1ccc(F)cc1 (mixture of isomers) [Example 1.9, (RS)-S-(4-[5-(4-Fluoro-phenyl-ethynyl)-4-((R)-2-hydroxy-1-methyl-ethylamino)-pyrimidin-2-ylamino]-phenyl)-S-methylsulfoximide]	> 10000 nM	< 500 nM
Cc1cc(C#Cc2cnc(Nc3ccc(S(C)(=N)=O)cc3)nc2N[C@H](C)CO)ccc1F (mixture of isomers) [Example 1.13, (RS)-S-(4-[5-(4-Fluoro-3-methyl-phenyl-ethynyl)-4-((R)-2-hydroxy-1-methyl-ethylamino)-pyrimidin-2-ylamino]-phenyl)-S-methylsulfoximide]	> 10000 nM	< 500 nM
Cc1ccccc1C#Cc1cnc(Nc2cccc(S(C)(=N)=O)c2)nc1N[C@H](C)CO (mixture of isomers) [Example 1.19, (RS)-S-(3-[4-((R)-2-Hydroxy-1-methyl-ethylamino)-5-(2-methyl-phenylethynyl)-pyrimidin-2-ylamino]-phenyl)-S-methylsulfoximide]	–	< 500 nM
Cc1cc(C#Cc2cnc(Nc3cccc(S(C)(=N)=O)c3)nc2N[C@H](C)CO)ccc1F (mixture of isomers) [Example 1.20, (RS)-S-(3-[5-(4-Fluoro-3-methyl-phenyl-ethynyl)-4-((R)-2-hydroxy-1-methyl-ethylamino)-pyrimidin-2-ylamino]-phenyl)-S-methylsulfoximide]	–	< 500 nM
Cc1ccc(C#Cc2cnc(Nc3ccc(S(C)(=N)=O)cc3)nc2N[C@H](C)CO)cc1 (mixture of isomers) [Example 1.5]	1000 to 10000 nM	< 500 nM
CCNc1nc(Nc2ccc(S(C)(=N)=O)cc2)ncc1C#Cc1ccc(F)c(C)c1 (racemic) [Example 1.24, (RS)-S-(4-[4-ethylamino-5-(4-fluoro-3-methyl-phenyl-ethynyl)-pyrimidin-2-ylamino]-phenyl)-S-methylsulfoximide]	> 10000 nM	< 500 nM
